Assay results as given in patent US10195156B2, “Compounds and compositions for intracellular delivery of agents” (ModernaTX, Inc., priority 2015, dated 2019).

Assays:
[1] = Particle size and polydispersity index of nanoparticle compositions (Zetasizer Nano ZS); format: physicochemical
Procedure: A Zetasizer Nano ZS (Malvern Instruments Ltd, Malvern, Worcestershire, UK) can be used to determine the particle size, the polydispersity index (PDI) and the zeta potential of the nanoparticle compositions in 1×PBS in determining particle size and 15 mM PBS in determining zeta potential.

[2] = Encapsulation efficiency of RNA (QUANT-IT RIBOGREEN RNA assay); format: physicochemical; conditions: for encapsulation efficiency, rank within the named table (in words): comparison amongst compositions
Procedure: For nanoparticle compositions including an RNA, a QUANT-IT™ RIBOGREEN® RNA assay (Invitrogen Corporation Carlsbad, Calif.) can be used to evaluate the encapsulation of an RNA by the nanoparticle composition. The samples are diluted to a concentration of approximately 5 μg/mL in a TE buffer solution (10 mM Tris-HCl, 1 mM EDTA, pH 7.5). 50 μL of the diluted samples are transferred to a polystyrene 96 well plate and either 50 μL of TE buffer or 50 μL of a 2% Triton X-100 solution is added to the wells. The plate is incubated at a temperature of 37° C. for 15 minutes. The RIBOGREEN® reagent is diluted 1:100 in TE buffer, and 100 μL of this solution is added to each well. The fluorescence intensity can be measured using a fluorescence plate reader (Wallac Victor 1420 Multilablel Counter; Perkin Elmer, Waltham, Mass.) at an excitation wavelength of, for example, about 480 nm and an emission wavelength of, for example, about 520 nm. The fluorescence values of the reagent blank are subtracted from that of each of the samples and the percentage of free RNA is determined by dividing the fluorescence intensity of the intact sample (without addition of Triton X-100) by the fluorescence value of the disrupted sample (caused by the addition of Triton X-100).

[3] = system: luciferase (Luc) mRNA expression; assay: Expression of Luc induced by sample formulations, whole-body bioluminescence after intravenous administration; format: in vivo; conditions: mice, i.v., 0.5 mg/kg
Procedure: In order to monitor how effectively various nanoparticle compositions deliver therapeutic and/or prophylactic agents to targeted cells, different nanoparticle compositions including a particular therapeutic and/or prophylactic agent (for example, a modified or naturally occurring RNA such as an mRNA) are prepared and administered to rodent populations. Mice are intravenously, intramuscularly, intraarterially, or intratumorally administered a single dose including a nanoparticle composition with a formulation such as those provided in Table 1. In some instances, mice may be made to inhale doses. Dose sizes may range from 0.001 mg/kg to 10 mg/kg, where 10 mg/kg describes a dose including 10 mg of a therapeutic and/or prophylactic agent in a nanoparticle composition for each 1 kg of body mass of the mouse. A control composition including PBS may also be employed.
Upon administration of nanoparticle compositions to mice, dose delivery profiles, dose responses, and toxicity of particular formulations and doses thereof can be measured by enzyme-linked immunosorbent assays (ELISA), bioluminescent imaging, or other methods. For nanoparticle compositions including mRNA, time courses of protein expression can also be evaluated. Samples collected from the rodents for evaluation may include blood, sera, and tissue (for example, muscle tissue from the site of an intramuscular injection and internal tissue); sample collection may involve sacrifice of the animals.
The efficacy of the nanoparticle compositions presented in Tables 1, 1a, 17-1, 19-1, 20-1 and 21-1 was evaluated with a bioluminescence study. Formulations were administered intravenously to mice (n=6) at a dosage of 0.5 mg/kg (mpk) and bioluminescence measured at 3, 6, and 24 hour time points. The standard MC3 formulation and a PBS control were evaluated for comparison.

[4] = system: modified luciferase expression; assay: Expression of Luc in different organs (liver, lung, spleen, femur) 6 hours after intravenous administration; format: in vivo; conditions: i.v., 0.5 mpk
Procedure: The efficacy of the nanoparticle compositions presented in Tables 1, 1a, 17-1, 19-1, 20-1 and 21-1 was further evaluated by measuring the expression of modified luciferase in the liver, lung, spleen, and femur upon administration of a given composition. Formulations were administered intravenously to mice (n=3) at a dosage of 0.5 mpk and bioluminescence measured after 6 hours. The standard MC3 formulation and a PBS control were also tested.

[5] = system: IL-6; assay: Cytokine production induced by sample formulations: IL-6; format: in vivo; conditions: mice, i.v., 0.5 mpk, 6 hours; for IL-6: in pg/mL (unit assumed)
Description: (§1) The introduction of foreign material into a mammalian body induces an innate immune response that promotes cytokine production. Such immune responses to, for example, nanoparticle compositions including therapeutic and/or prophylactic agents, are undesirable. The induction of certain cytokines is thus measured to evaluate the […] of nanoparticle compositions. The concentrations of various cytokines in mice upon intravenous administration of nanoparticle compositions presented in Tables 1, 1a, 17-1, 19-1, 20-1 and 21-1 at a dosage of 0.5 mpk was measured at 6 hours. The standard MC3 formulation and a PBS control were also tested.

[6] = system: IP-10; assay: Cytokine production induced by sample formulations: IP-10; format: in vivo; conditions: mice, i.v., 0.5 mpk, 6 hours; for IP-10: in pg/mL (unit assumed)
Description: as §1

[7] = pKa of nanoparticle compositions; format: physicochemical
[8] = Table 1, rows without footnote mark
[9] = Table 1, rows without footnote mark (lipid:DOPE:cholesterol:PEG-DMG 40:20:38.5:1.5, Luc mRNA; MC3 standard formulation)
[10] = Table 20-1, rows without footnote mark
[11] = Table 1, * lipid:DSPC:Chol:PEG-DMG 50:10:38.5:1.5

Row | Structure (SMILES) | PDI [1, 8] | Size (nm) [1, 9] [nm] | EE (%) [2, 8] [%] | IL-6 ([5]; Table 4) | IL-6 induction, rank within the named table (in words) [5] | IP-10 ([6]; Table 4) | pKa [7, 8] | IP-10 induction, rank or comparison with IL-6 (in words) [6] | encapsulation efficiency, rank within the named table (in words) [2] | Total Flux 3 hours ([3]; Table 2) | Total Flux 6 hours ([3]; Table 2) | Total Flux Liver ([4]; Table 3, mice) | Total Flux Lung ([4]; Table 3, mice) | Total Flux Spleen ([4]; Table 3, mice) | Total Flux 24 hours ([3]; Table 2, 24 hours) | Total Flux Femur ([4]; Table 3, mice) | also measured
1 | CCCCCCCCCCCCN(CCCCCCCCCCCC)CCN(CCCCCCCCCCCC)CCN1CCN(C(=O)CN(CCCCCCCCCCCC)CCCCCCCCCCCC)CC1 [Compound 3, 2-(Didodecylamino)-1-(4-(2-((2-(didodecylamino)ethyl)(dodecyl)amino)ethyl)piperazin-1-yl)ethan-1-one] | 0.044 | 73.5 | 92.5 | 7 | lowest IL-6 expression | 341 |  |  |  | 3.75E+08 | 1.12E+09 | 1.36E+08 | 8.47E+05 | 9.51E+05 |  |  | 
2 | CCCCCCCCCCCCCCN(CCCCCCCCCCCCCC)CCN(CCCCCCCCCCCCCC)CCN1CCN(CCN(CCCCCCCCCCCC)CCCCCC(=O)OCCCCC)CC1 [Compound 13, Pentyl 6-((2-(4-(2-((2-(ditetradecylamino)ethyl)(tetradecyl)amino)ethyl)piperazin-1-yl)ethyl)(dodecyl)amino)hexanoate] | 0.080 | 97.7 | 64.2 | 301 | highest expression | 7266 | 6.30 | highest expression |  | 3.59E+09 | 3.80E+09 | 6.10E+08 | 2.89E+06 | 3.63E+07 | 3.11E+08 | 1.99E+06 | 
3 | CCCCCCCCCCCCN(CCCCCCCCCCCC)CCN1CCN(CCN(CCCCCC)CCN(CCCCCC)CCCCCC)CC1 [Compound 17, N^1-(2-(4-(2-(Didodecylamino)ethyl)piperazin-1-yl)ethyl)-N^1,N^2,N^2-trihexylethane-1,2-diamine] | 0.180 | 82.3 | 96.6 | 164 |  | 545 | 6.67 |  |  | 7.55E+09 | 2.49E+09 | 4.26E+08 | 7.26E+05 | 3.20E+06 | 7.61E+08 | 6.71E+05 | 
4 | CCCCC/C=C\C/C=C\CCCCCCCCN(CCO)CCCCCC [Compound 17-2, 2-(Hexyl((9Z,12Z)-octadeca-9,12-dien-1-yl)amino)ethan-1-ol] |  |  |  |  | lowest IL-6 levels |  |  | lowest IP-10 levels | did not encapsulate RNA with high efficiency |  |  |  |  |  |  |  | PDI ([1]; Table 17-1): 0.104; Size (nm) ([1]; Table 17-1): 136.9 nm; particle size, rank within the named table (in words) ([1]; comparison amongst compositions): largest particles; EE (%) ([2]; Table 17-1): 57.2%; pKa ([7]; Table 17-1): 6.92; Total Flux 3 hours ([3]; Table 17-2): 2.83E+05; Total Flux 6 hours ([3]; Table 17-2): 3.76E+05; Total Flux 24 hours ([3]; Table 17-2, 24 hours): 2.64E+05; Total Flux Liver ([4]; Table 17-3, mice): 6.42E+04; Total Flux Lung ([4]; Table 17-3, mice): 1.96E+04; Total Flux Spleen ([4]; Table 17-3, mice): 4.16E+04; IL-6 ([5]; Table 17-4): 9.88; IP-10 ([6]; Table 17-4): 72.8
5 | CCCCCCCCCCCCN(CCCCCCCCCCCC)CCNCCO [Compound 20-19, 2-((2-(Didodecylamino)ethyl)amino)ethan-1-ol] |  |  |  |  |  |  |  |  | highest |  |  |  |  |  |  |  | PDI [1, 10]: 0.145; Size (nm) [1, 10]: 74.9 nm; EE (%) [2, 10]: 99.5%; pKa [7, 10]: 4.73; Total Flux 3 hours ([3]; Table 20-2): 5.37E+05; Total Flux 6 hours ([3]; Table 20-2): 7.60E+05; Total Flux 24 hours ([3]; Table 20-2, 24 hours): 6.08E+05; Total Flux Liver ([4]; Table 20-3, mice): 3.80E+05; Total Flux Lung ([4]; Table 20-3, mice): 1.96E+04; Total Flux Spleen ([4]; Table 20-3, mice): 2.74E+04; IP-10 ([6]; Table 20-4, formula (20-I)): 127.2
6 | CCCCCCCCCCCCN(CCCCCCCCCCCC)CCN(CCCCCCCCCCCC)CCN1CCNCC1 [Compound 37, N^1,N^1,N^2-Tridodecyl-N^2-(2-(piperazin-1-yl)ethyl)ethane-1,2-diamine] |  |  |  |  |  | 198 |  |  | highest | 1.19E+07 | 6.66E+06 | 1.92E+06 | 6.90E+05 | 9.75E+05 | 9.38E+05 |  | Size (nm) ([1]; Table 1, * formulated with lipid:DSPC:Chol:PEG-DMG 50:10:38.5:1.5): 86.6 nm; PDI [1, 11]: 0.107; EE (%) [2, 11]: 99.9%; pKa [7, 11]: 6.45; total flux after 24 hours, rank within the named table (in words) ([3]; 24 hours): lowest flux after 24 hours
